Test results reported in patent US20240092803A1, “BRIDGED COMPOUNDS AS KRAS G12D INHIBITOR AND DEGRADER AND THE USE THEREOF” (BEIGENE SWITZERLAND GMBH, priority 2021, published 2024).

Columns and labels:
[1] = molecular target: GST-tagged KRAS (amino acids 1-188) G12D binding to His-tagged SOS1 (Homo sapiens (Human), UniProt P01116, G12D); test: KRAS G12D:SOS1 GDP TR-FRET assay; conditions: GDP 10 μM; KRAS G12D 37.5 nM; SOS1 18 nM
Procedure: (§1) KRAS: SOS1 GDP TR-FRET Assay
(§2) This assay was used to identify compounds which competitively interact with the binding of KRAS protein to SOS1 in the presence of GDP. GST-tagged WT KRAS (amino acids 1-188), GST-tagged KRAS (amino acids 1-188) G12D and His- tagged SOS1 protein (amino acids 564-1049) was expressed in E. coli and purified. All protein and reaction solutions were prepared in assay buffer containing DPBS pH7.5, 0.1% BSA, and 0.05% Tween 20. Purified GST-tagged WT KRAS or KRAS G12D protein (37.5 nM final assay concentration) and GDP (Sigma, 10 μM final assay concentration) mixture, a serially diluted compound (top final concentration is 50 uM or 10 uM, 3-fold serially diluted, 10 points) and His-tagged SOS1 protein (18 nM final assay concentration) were added into the assay plates (384 well microplate, black, Corning) sequentially. Plates are incubated at 24° C. for 1 hr. Following the incubation, Mab Anti-6His-Tb cryptate (Cisbio) and Mab Anti GST-D2 (Cisbio) were added and further incubated at 24° C. for another 1 hr. The TR-FRET signals (ex337nm, em665nm/620nm) were read on BMG PHERAstar FSX instrument. The inhibition percentage of KRAS protein binding with SOS1 in presence of increasing concentrations of compounds was calculated based on the ratio of fluorescence at 665 nm to that at 620 nm. The IC50 value of each compound was calculated from fitting the data to the four-parameter logistic model by Dotmatics.

[2] = molecular target: GST-tagged WT KRAS (amino acids 1-188) binding to His-tagged SOS1 (Homo sapiens (Human), UniProt P01116); test: KRAS WT:SOS1 GDP TR-FRET assay; conditions: GDP 10 μM; WT KRAS 37.5 nM; SOS1 18 nM
Sequence of GST-tagged WT KRAS (amino acids 1-188) binding to His-tagged SOS1 (P01116 other isoform, or with tags, fused parts or gaps): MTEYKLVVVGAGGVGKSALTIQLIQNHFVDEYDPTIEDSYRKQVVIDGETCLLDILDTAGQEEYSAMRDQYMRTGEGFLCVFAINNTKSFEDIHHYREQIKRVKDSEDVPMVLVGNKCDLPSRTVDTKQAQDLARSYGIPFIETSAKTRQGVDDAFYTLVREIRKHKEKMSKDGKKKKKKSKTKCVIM
Procedure: as §1, §2

[3] = tested on: pERK1/2(THR202/TYR204) level in AsPC-1 cells; test: pERK assay (HTRF) in AsPC-1 cells; assay type: cell-based; conditions: Homo sapiens, ASPC1, 2 h compound treatment
Procedure: AsPC-1 cell line was used in this study. Cells were maintained in RPMI-1640 supplemented with 10% fetal bovine serum (Thermo Fisher), 50 units/mL penicillin and streptomycin (Thermo Fisher) and kept at 37° C. in a humidified atmosphere of 5% CO2 in air. Cells were reinstated from frozen stocks that were laid down within 30 passages from the original cells purchased. 30000 cells per well were seeded into a 96-well plate and incubated overnight. Cells were treated with a 10-point dilution series. The final compound concentration is from 0 to 10 μM. After 2 h compound treatment, cells were lysed, and the pERK1/2(THR202/TYR204) level in the cell lysates was detected by HTRF kit (Cisbio). In brief, a total of 16 μl of cell lysate from each well of a 96-well plate was transferred to a 384-well white assay plate. Lysate from each well was incubated with 2 μL of Eu3+- cryptate (donor) labeled anti-phospho-ERK1/2 and 2 μL of D2 (acceptor) labeled anti-phospho-ERK1/2 antibodies (Cisbio) overnight in dark at room temperature. When donor and acceptor are in close proximity, excitation of the donor with laser triggers a Fluorescence Resonance Energy Transfer (FRET) towards the acceptor, which in turn fluoresces at 655 nm wavelength. FRET signals were measured using a PHERAstar FSX reader (BMG Labtech). IC50 determination was performed by fitting the curve of percent inhibition versus the log of the inhibitor concentration using Dotmatics.

Sequence of GST-tagged KRAS (amino acids 1-188) G12D binding to His-tagged SOS1 (P01116 other isoform, or with tags, fused parts or gaps G12D): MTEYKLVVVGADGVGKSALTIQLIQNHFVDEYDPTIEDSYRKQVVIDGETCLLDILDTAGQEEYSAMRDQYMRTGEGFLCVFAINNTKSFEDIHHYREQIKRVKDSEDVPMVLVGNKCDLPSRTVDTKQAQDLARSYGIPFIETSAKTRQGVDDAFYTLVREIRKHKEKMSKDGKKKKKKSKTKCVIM

| SMILES | IC50 [1] | IC50 [2] | IC50 [3] |
| --- | --- | --- | --- |
| Cc1cccc2cccc(N3CCc4c(nc(OC[C@@H]5CCCN5C)nc4N4CCNCC4)C3)c12 [Example 1, (S)-7-(8-methylnaphthalen-1-yl)-2-((1-methylpyrrolidin-2-yl)methoxy)-4-(piperazin-1-yl)-5,6,7,8-tetrahydropyrido[3,4-d]pyrimidine] | 22.7 µM | > 50 µM | – |
| Cc1cccc2cccc(N3CCc4c(nc(OC[C@@H]5CCCN5C)nc4N4C5CCC4C(N)C5)C3)c12 (stereo partly drawn) [Example 2, 7-(7-(8-methylnaphthalen-1-yl)-2-(((S)-1-methylpyrrolidin-2-yl)methoxy)-5,6,7,8-tetrahydropyrido[3,4-d]pyrimidin-4-yl)-7-azabicyclo[2.2.1]heptan-2-amine] | 4.5 µM | 34.2 µM | – |
| CN1CCC[C@H]1COc1nc2c(c(N3C4CCC3CNC4)n1)CCN(c1cccc3cccc(Cl)c13)C2 [Example 3, 4-(3,8-diazabicyclo[3.2.1]octan-8-yl)-7-(8-chloronaphthalen-1-yl)-2-(((S)-methylpyrrolidin-2-yl)methoxy)-5,6,7,8-tetrahydropyrido[3,4-d]pyrimidine] | 0.635 µM | > 50 µM | – |
| Cc1cccc2cccc(N3CCc4c(nc(OC[C@@H]5CCCN5C)nc4N4CC5CC4CN5)C3)c12 (stereo partly drawn) [Example 4, 4-(2,5-diazabicyclo[2.2.1]heptan-2-yl)-7-(8-methylnaphthalen-1-yl)-2-(((S)-1-methylpyrrolidin-2-yl)methoxy)-5,6,7,8-tetrahydropyrido[3,4-d]pyrimidine] | 2.59 µM | > 50 µM | – |
| Cc1cccc2cccc(N3CCc4c(nc(OC[C@@H]5CCCN5C)nc4N4CC5CCC(C4)N5)C3)c12 [Example 5, 4-(3,8-diazabicyclo[3.2.1]octan-3-yl)-7-(8-methylnaphthalen-1-yl)-2-(((S)-1-methylpyrrolidin-2-yl)methoxy)-5,6,7,8-tetrahydropyrido[3,4-d]pyrimidine] | 0.118 µM | > 50 µM | > 10 µM |
| Cc1cccc2cccc(N3CCc4c(nc(OC[C@@H]5CCCN5C)nc4N4CC5CCC4CN5)C3)c12 (stereo partly drawn) [Example 6, 2-(7-(8-methylnaphthalen-1-yl)-2-(((S)-1-methylpyrrolidin-2-yl)methoxy)-5,6,7,8-tetrahydropyrido[3,4-d]pyrimidin-4-yl)-2,5-diazabicyclo[2.2.2]octane] | 0.713 µM | > 50 µM | – |
| CN1CCC[C@H]1COc1nc2c(c(N3CC4CCC(C3)N4)n1)CCN(c1cccc3cccc(Cl)c13)C2 [Example 7, 4-(3,8-diazabicyclo[3.2.1]octan-3-yl)-7-(8-chloronaphthalen-1-yl)-2-(((S)-1-methylpyrrolidin-2-yl)methoxy)-5,6,7,8-tetrahydropyrido[3,4-d]pyrimidine] | 0.059 µM | 17.2 µM | 6.75 µM |
| Cc1cccc2cccc(N3CCc4c(nc(OC[C@@H]5CCCN5C)nc4N4CC5CC(C4)N5)C3)c12 [Example 8, 3-(7-(8-methylnaphthalen-1-yl)-2-(((S)-1-methylpyrrolidin-2-yl)methoxy)-5,6,7,8-tetrahydropyrido[3,4-d]pyrimidin-4-yl)-3,6-diazabicyclo[3.1.1]heptane] | 0.749 µM | > 10 µM | – |
| CN1CCC[C@H]1COc1nc2c(c(N3CC4CCC(C3)N4)n1)CCN(c1cccc3ccc(Cl)c(Cl)c13)C2 [Example 9] | 0.063 µM | > 10 µM | 9.93 µM |
| CN1CCC[C@H]1COc1nc2c(c(N3CC4CCC(C3)N4)n1)CCN(c1cc(O)cc3ccccc13)C2 [Example 10] | 0.022 µM | 6.21 µM | – |
| CN1CCC[C@H]1COc1nc2c(c(N3CC4CCC(C3)N4)n1)CCN(c1cccc3ccc(F)c(Cl)c13)C2 [Example 11] | 0.012 µM | 3.62 µM | 4.64 µM |
